Source: a melting point compilation (Tetko et al.; mined from patent text by program, amines drawn as free bases though some values may be those of a salt)

With `COCC(C)N1Cc2c(NC(=O)c3ccc(F)c(C(F)(F)F)c3)cccc2C1=O` (configuration not stated) the melting point was 151 to 152 °C.
Compound `CNc1nnc(SCc2ccccc2)s1` has a melting point of 87 to 89 °C.
Compound `CCCN(Cc1ccc(-c2ccccc2-c2nnn[nH]2)cc1)c1ncccc1C(=O)OC` has a melting point of 146 to 147 °C.
With `Cc1nc2cnccc2n1-c1ccc(C2=Nc3ccccc3NC(=O)C2)cn1` the melting point was 208 to 210 °C.
`Cc1nc2cc(F)ccc2c(=O)n1C1CCC(=O)NC1=O` (configuration not stated) showed a melting point of 243 to 245 °C.
`CCCCNc1ccc(S(=O)(=O)N2CC(N(Cc3ccccc3)C(=O)OC(C)(C)C)C2)cc1` gave a melting point of 115 to 116 °C.
In the case of `CC(C)=C1CNc2ccc(O)cc21`, the melting point is reported as 175 to 178 °C.
Work on `CN(C)C(=O)c1ccccc1[N+](=O)[O-]` yielded a melting point of 74 to 76 °C.
For `CC1(C)C=CN(C(=O)Nc2ccccc2)C=C1`, the melting point was 128 to 130 °C.
In the case of `COc1ccc(S(C)(=O)=O)cc1-c1nc2ccc(C(C)(C)CNC=O)cc2[nH]1`, the melting point is reported as 235 to 236 °C.
`COC(=O)c1ccccc1C1=NC(C)(C(C)C)C(=O)N1Sc1ccccc1[N+](=O)[O-]` (configuration not stated) gave a melting point of 143 to 148 °C.
For `CCc1noc(-c2cn(-c3cccc(OCCc4ccccc4)c3)cn2)n1`, the melting point was 124 to 125 °C.
`CCOC(=O)CCNCC(O)COc1cccc(OC)c1` (configuration not stated) showed a melting point of 72 °C.
`Cc1c(Br)ccc(O)c1C(=O)O` gave a melting point of 163 to 165 °C.
In the case of `CCn1nc2c(N)nc3ccccc3c2c1CC(C)(C)NS(C)(=O)=O`, the melting point is reported as 229 to 230 °C.
For `Nc1c(Br)cc(S(N)(=O)=O)cc1C(F)(F)F`, the melting point was 248 to 252 °C.
Work on `CC(=Cc1ccccc1)c1ccc2c(c1)C(C)(C)CCO2` yielded a melting point of 64 to 65 °C.
For `CC(C)(C)OC(=O)N[C@@H](Cc1ccccc1)C[C@H](O)[C@H](Cc1ccccc1)N(Cc1ccccc1)Cc1ccccc1`, the melting point was 145 to 146 °C.
With `Cc1nc(OC(C)C(=O)O)nn1-c1ccccc1` (configuration not stated) the melting point was 157 to 159 °C.
In the case of `C=C=CC12CCC(=O)C=C1C=CC1C3CCC(=O)C3(C)CCC12` (configuration not stated), the melting point is reported as 152 to 154 °C.
Compound `Brc1c(-c2ccccc2)n[nH]c1Sc1ccccc1` has a melting point of 121 to 122 °C.
With `O=C(O)Cc1c(-c2ccccc2)c2cc3c(cc2oc1=O)C(=O)OC3` the melting point was 226 to 227 °C.
For `CCCOc1ccc2c(c1)[C@H](c1ccc(OC)cc1OCC(=O)O)[C@@H](CC(=O)O)[C@@H]2c1ccc2c(c1)OCO2` (racemic), the melting point was 210 to 212 °C.
`c1ccc(-c2ccc3c4c([nH]c3c2)CCNCC4)cc1` gave a melting point of 220 to 222 °C.
With `CCCc1nn(Cc2ccccc2)c(C(N)=O)c1NC(=O)c1cc(S(=O)(=O)N2CCN(C)CC2)ccc1OCC` the melting point was 182 to 184 °C.
For `CCC(CN1CCCC1)C(=O)c1cc(-c2ccccc2)no1` (configuration not stated), the melting point was 68 to 69 °C.
`COC(=O)C1(Cl)CC(=O)N(c2ccc(Cl)cc2)C1=C(Cl)Cl` (configuration not stated) showed a melting point of 159 °C.
For `COc1nc2cc(Cl)cc(I)c2nc1OC`, the melting point was 94 to 96 °C.
With `CC(=O)OC1Oc2ccc(OS(=O)(=O)N(C)C)cc2C1(C)C` (configuration not stated) the melting point was 67 to 68 °C.
For `Cc1c(C(=O)CCl)c(C)n(C)c1C(=O)c1ccc(Cl)cc1Cl`, the melting point was 100 to 102 °C.
For `CCOc1cc(C)nc(-n2ccnc2)n1`, the melting point was 116 °C.
`FC(F)(F)c1cccc(-c2ccnc3c(Cl)cnn23)c1` showed a melting point of 155 to 157 °C.
For `O=c1oc2c(Br)cccc2cc1S(=O)(=O)Nc1ccc(Br)cc1`, the melting point was 206 to 208 °C.
Compound `CS(=O)(=O)c1ccc(-c2[nH]c(Br)c(Cl)c2-c2ccc(F)cc2)cc1` has a melting point of 206 to 209 °C.
With `COc1ccc(Nc2nc3ccccc3c3[nH]c(C4CCCC4)nc23)cc1` the melting point was 106 to 107 °C.
Work on `CC(C)(C(=O)O)c1ccc(C(=O)Nc2cn3cc(-c4ccoc4)ccc3n2)cc1` yielded a melting point of 307 to 309 °C.
With `CCCSc1ncc(C(C)C(=O)O)n1Cc1ccccc1Cl` (configuration not stated) the melting point was 170 to 172 °C.
`COC(=O)C[C@@H](SCc1ccccc1)C(N)=O` gave a melting point of 146 to 149 °C.
With `CCOC(=O)c1c(C)[nH]c(Sc2cc(Cl)cc(Cl)c2)c1C(C)C` the melting point was 148 to 151 °C.
For `N#Cc1cccc(-c2nc(Nc3cnccn3)sc2-c2ccncn2)c1`, the melting point was > 280 °C.
`CCCCN1C(=O)c2c(c(C)nn2C)Nc2ncccc21` gave a melting point of 144 to 146 °C.
In the case of `COc1c(OC2CCC3(CC2)OCC(C)(C)CO3)ccnc1C`, the melting point is reported as 90 °C.
`CCCc1c(OCC(O)COc2ccc3c(c2CCC)OC(C(=O)O)CC3=O)ccc(C(C)=O)c1O` (configuration not stated) gave a melting point of 68 to 72 °C.
With `CCOC(=O)N1Cc2ccccc2C(Oc2ccc(C(F)(F)F)cc2)C1` (configuration not stated) the melting point was 84 °C.
Compound `Fc1ccc(Nc2nnc(Cc3ccncc3)c3ccccc23)cc1` has a melting point of 129 to 131 °C.
For `COc1cc(-n2cccn2)ccc1-n1cc(OC)c(=O)c(C(C)=O)n1`, the melting point was 193 to 196 °C.
Compound `CC(=O)OCCCOc1cccc2cc(C#N)c(=O)oc12` has a melting point of 132 to 135 °C.
For `COC(=O)C(=O)c1ccc(OCCOc2ccc3c(c2)CCCC3)cc1`, the melting point was 95 to 99 °C.
`CNc1ccccc1C(=O)Cc1nnn[nH]1` gave a melting point of 199 to 201 °C.
Work on `NS(=O)(=O)c1ccc(-c2noc(-c3cnn4c(C(F)F)cc(-c5ccc(C(F)(F)F)cc5)nc34)n2)cc1` yielded a melting point of 283 °C.
`COc1ccc(CCNC(=O)C(N)=O)cc1OC1CCCC1` showed a melting point of 175 to 176 °C.
`O=C(O)CCn1c2ccc(O)cc2c2c3c(c(-c4ccccc4Cl)cc21)C(=O)NC3=O` gave a melting point of 286 °C.
`CC(C)(C)c1cc(C=O)c2c(c1O)CCC2` gave a melting point of 213 to 214 °C.
`COc1ccc2sc(C(N)=O)c(SC)c2c1` showed a melting point of 171 to 173 °C.
`CCCCNC(=O)NS(=O)(=O)CCc1c(C)nn(C)c1-n1ccc2cc(C(F)(F)F)cnc21` gave a melting point of 163 to 164 °C.
`CC1C(=O)Oc2cc(N3CCCCC3)ccc21` (configuration not stated) gave a melting point of 78 to 80 °C.
`Cc1cc(CN=C(O)c2cc(C(O)=NCc3cc(C)c(O)c(C(C)(C)C)c3)c(C(=O)O)cc2C(=O)O)cc(C(C)(C)C)c1O` showed a melting point of 267 to 269 °C.
Work on `c1ccc(C(c2ccccc2)(c2ccccc2)N2CCCCC2)cc1` yielded a melting point of 156 to 158 °C.
`Oc1ccc(C2CCOCC2)cc1Cl` gave a melting point of 123 to 125 °C.
With `NC(=O)COc1cccc(N)c1` the melting point was 107 to 111 °C.
`C=CCC1CC(c2c[nH]c(-c3ccc(F)cc3)c2-c2ccncc2)=CCN1C` (configuration not stated) gave a melting point of 178 to 180 °C.
For `Cc1ccc(S(=O)(=O)O)cc1C=C1C(=O)C2(C)CCC1C2(C)C` (configuration not stated), the melting point was 130 °C.
For `N=C(NCc1ccc(Cl)cc1)Nc1cccc(C(F)(F)F)c1`, the melting point was 103 to 105 °C.
With `CC(C)c1nccc2c(CC(=O)O)cccc12` the melting point was 181 to 182 °C.
In the case of `Cc1ccc2oc(C(=O)N[C@H]3CCN(C(=O)c4cc(C(F)(F)F)cc(C(F)(F)F)c4)[C@H](Cc4ccc(Cl)cc4)C3)cc(=O)c2c1`, the melting point is reported as 240 to 241 °C.
For `CC(=O)Nc1ccc([N+](=O)[O-])c(C=O)c1`, the melting point was 131 to 135 °C.
`O=C(O)Cc1ccc2c(c1)sc1ccccc12` showed a melting point of 174 to 176 °C.
Compound `O=S(=O)(Nc1ccc2c(OCc3csc(-c4ccc(Cl)nc4)n3)cccc2c1)C(F)(F)F` has a melting point of 154 to 156 °C.
`CN(c1cccc2cc(C3=NCC4(CCN(S(C)(=O)=O)CC4)S3)[nH]c12)S(=O)(=O)c1cccs1` gave a melting point of 251 °C.
`COCC(O)Cn1c2ccc(OC)cc2c2c3c(c(-c4ccccc4)cc21)C(=O)NC3=O` (configuration not stated) gave a melting point of 128 to 136 °C.
In the case of `COc1ccc(CNc2ccccc2C(=O)Nc2ccc(Cl)c(C(F)(F)F)c2)cn1`, the melting point is reported as 108 to 110 °C.
Compound `CCN(CC)C(=O)C(=NNc1ccccc1)C(C)=O` has a melting point of 63 to 65 °C.
For `O=C(NCc1ccc(Cl)cc1)c1cnc2sc(CN3CCOCC3)cc2c1O`, the melting point was 193 to 195 °C.
`CCCCCCCCNC(=O)Nc1ccccc1C(=O)NCC1CCN(C(c2ccccc2)c2ccccc2)CC1` showed a melting point of 155 to 157 °C.
`CC1(C)OC(=O)Nc2ccc(-c3ccc(CC#N)c(F)c3)cc21` gave a melting point of 253 to 256 °C.
In the case of `COP(=O)(CC(O)c1c(C)cc(C)cc1-c1ccc(F)c(C)c1)OC` (configuration not stated), the melting point is reported as 98 to 100 °C.
Work on `CC(C)Nc1nc(-n2cccn2)nc(Cl)c1-c1c(F)cccc1Cl` yielded a melting point of 94 to 98 °C.
Compound `CCOC(=O)C1Cc2cc3c(-c4ccccc4F)noc3cc2O1` (configuration not stated) has a melting point of 115 to 116 °C.
For `CC(C)NCC(O)COc1cccc2c1CC(=O)N2` (configuration not stated), the melting point was 173 to 175 °C.
For `CC1Cc2cc3c(cc2C(c2ccc([N+](=O)[O-])cc2)=NN1C1=NC(=O)CS1)OCO3` (configuration not stated), the melting point was 218 to 220 °C.
With `COC(=O)COc1ccc(-c2ccc[nH]2)cc1` the melting point was 136 to 137 °C.
Compound `CC(=O)N1CCC(N(C)C(=O)c2ccc3nonc3c2)CC1` has a melting point of 173 to 175 °C.
`Cc1nc2c3c(c(C(=O)N4CCOCC4)cc2n1C)CCC1(Cc2ccccc2C1)N3` gave a melting point of 284 to 285 °C.
For `CC(=O)C(Cc1cc(Cl)cc(Cl)c1)C(C)=O`, the melting point was 85 to 87 °C.
`CCc1c(-c2ccc(CO)cc2)c2cc(C(C)=O)c3cccc1n32` showed a melting point of 73 to 77 °C.
Work on `CCCCc1c(C(=O)OCC)cc(OC)c2ccc(OC)cc12` yielded a melting point of 44 to 45 °C.
For `CC(C)c1ccc(S(=O)(=O)N2CCCC2c2ccc(F)cc2)cc1` (racemic), the melting point was 77 °C.
For `O=c1ccccn1C1=CC(CF)(CF)Oc2ccc(C(F)(F)C(F)(F)F)cc21`, the melting point was 137 to 138 °C.
Compound `COc1ccc2c(C(=S)N(C)CC(=O)O)cccc2c1C(F)(F)C(F)(F)F` has a melting point of 164 to 165 °C.
Work on `CCS(=O)(=O)Nc1cc(-c2ncnc(C(F)F)c2Cl)c(F)cc1Cl` yielded a melting point of 138 to 139 °C.
Compound `Cc1cc(Br)cnc1CCCCN=C(NC#N)NCc1ccccc1` has a melting point of 140 to 141 °C.
`CSC(=S)C1(c2ccccn2)CCCS1` (configuration not stated) gave a melting point of 64 °C.
With `O=C(Cl)c1sc2cc(Oc3ccccc3)ccc2c1Cl` the melting point was 121 to 123 °C.
Work on `N#Cc1ccc2c(c1)CCC2=O` yielded a melting point of 123 to 125 °C.
With `CSc1nc2ccccc2n1C1CCNCC1` the melting point was 114 to 115 °C.
`Cn1c(=O)c2c(c3ccccc31)c1cc(Cl)ccc1n2CCN` gave a melting point of 222 to 224 °C.
Compound `O=C(CCCCCNC(=O)OCc1ccccc1)N[C@@H](Cc1ccccc1)C(=O)O` has a melting point of 119 to 120 °C.
Work on `CCOC(=O)c1ncn2c1C(C)N=C(c1ccccc1F)c1cc(C#C[Si](C)(C)C)ccc1-2` (configuration not stated) yielded a melting point of 186 to 187 °C.
Compound `CSc1ccccc1C(=O)Nc1ccc(C(=O)N2Cc3ccccc3Cc3ccccc32)cc1` has a melting point of 222 to 225 °C.
Work on `CC1=NN(C)C(=O)C1(Cl)C(=O)c1ccccc1` (configuration not stated) yielded a melting point of 70.5 to 72 °C.
With `CCOc1ccc(C(=O)Nc2ccccc2)cc1N(c1ccccc1)C(F)(F)F` the melting point was 184 to 185 °C.
`CC(O)c1cc2c(n1C)C(=O)c1cccc(O)c1C2=O` (configuration not stated) gave a melting point of 219 to 220 °C.
